{"source": "patent US4446047A", "about": "“Pleochroic anthraquinone dyes” (Imperial Chemical Industries PLC, priority 1981, dated 1984)", "key": {"[1]": {"details": "prior-art symmetrical dyes; cited from earlier work"}, "[2]": {"details": "prior-art symmetrical dyes; cited from earlier work", "remark": "listed apart in the source"}, "[3]": {"details": "prior-art symmetrical dyes; cited from earlier work", "remark": "listed apart in the source"}, "[4]": {"experiment": "Order parameter in other liquid crystal media (hosts) / liquid crystal materials", "type": "physicochemical", "details": "20° C.", "method": "(§1) In order to provide maximum contrast between the two states it is important that the guest molecules adopt as closely as possible the time averaged orientation of the host, however this is achieved only to a limited degree because of random thermal fluctuations. The degree to which the orientation varies from the ideal is measured by a quantity known as the order parameter S which is given by the following equation: […]\nwhere cos^2 θ is a time averaged term and θ is the instantaneous angular orientation of the molecules with respect to the time averaged orientation of the host molecules. The determination of the value of the order parameter S is well understood in the art, see for example the paper, \"A new absorptive mode reflective liquid crystal display device\", by D. L. White and G. N. Taylor in the Journal of Applied Physics, 1974, 45, pages […] to 4723.\n(§2) The properties of some of the dyes described in the Examples were also measured in other liquid crystal media (hosts) at 20° C., unless otherwise stated, and the results are set out in Table 5.\n(§3) The liquid crystal materials referred to in Table 5 as Hosts 1 to 12 have the following compositions:\n(§4) Host 1 is the liquid crystal material E7, available from BDH Chemicals Ltd, which includes the compounds:\n(§5) Host 2 is the liquid crystal material ZLI 1132, available from E Merck & Co, which includes the following compounds:\n(§6) Host 3 is the liquid crystal material ZLI 1695, available from E Merck & Co, Darmstadt, West Germany. This has a clearing point (nematic to isotropic transition temperature) of 72° C.\n(§7) Host 4 is a mixture of alkyl-cyanophenyl-dioxanes containing n-propyl, n-pentyl and n-heptyl chains.\n(§8) Host 5 is the liquid crystal material ZLI 1565, available from E Merck & Co. This has a clearing point of 85° C.\n(§9) Host 6 is the liquid crystal material ZLI 1624, available from E Merck & Co. This has a clearing point of 87° C.\n(§10) Host 8 is the liquid crystal material RO-TN 430 available from Hoffmann La Roche Co. This has a clearing point of 69° C.\n(§11) Host 9 is a mixed bicyclo-octane liquid crystal material containing the following compounds:\n(§12) Host 10 is a mixture of liquid crystal materials based mainly on cyanobiphenyls and available from BDH Chemicals Ltd under the name E61.\n(§13) Host 11 is a mixture of liquid crystal materials based mainly on cyanobiphenyls and available from BDH Chemicals Ltd under the name E49.\n(§14) Host 12 is a mixture of fluorobicyclo(2,2,2)octane esters having negative anisotropy and containing a mixture of two compounds of the following formula: […]"}, "[5]": {"experiment": "Order parameter in liquid crystal medium E43", "type": "physicochemical", "details": "E43, 20° C., Table 4", "method": "as §1\nwhere cos^2 θ is a time averaged term and θ is the instantaneous angular orientation of the molecules with respect to the time averaged orientation of the host molecules."}, "[6]": {"experiment": "Solubility in other liquid crystal media (hosts) / liquid crystal materials", "type": "physicochemical", "method": "as §2, §3, §4, §5, §6, §7, §8, §9, §10, §11, §12, §13, §14"}, "[7]": {"experiment": "Molar extinction coefficient of the dye in liquid crystal material", "type": "physicochemical", "from_the_text": "Solubility is, however, only one of the factors affecting the achievement of good contrast in a liquid crystal display, another factor is the extinction coefficient of the dye in the liquid crystal material. One useful indication of the ability of a dye to give good contrast is the product of the molar extinction coefficient and the solubility (in moles/liter)."}, "[8]": {"experiment": "Absorption maximum in liquid crystal medium E43", "type": "physicochemical", "details": "E43, 20° C., Table 4", "source_text": "Detection was by means of a u.v. source (254 nm) and samples, corresponding to all the peaks in the chromatogram, were collected."}}}
{"smiles": "O=C1c2cccc(Sc3ccccc3)c2C(=O)c2cccc(Sc3ccccc3)c21", "note": "[1,5-bis(phenylthio)anthraquinone]", "values": [{"measurement": "solubility in the liquid crystal materials (in words)", "setting": "[1]", "value": "insufficient for practical purposes"}, {"measurement": "stability (in words)", "setting": "[2]", "value": "adequate"}, {"measurement": "order parameters (in words)", "setting": "[3]", "value": "high"}]}
{"smiles": "CC(C)(C)c1ccc(Sc2cccc3c2C(=O)c2cccc(Sc4ccccc4)c2C3=O)cc1", "note": "[Example 11, 1-phenylthio-5-(4-t-butylphenylthio)anthraquinone]", "values": [{"measurement": "Order Parameter", "setting": "[4]; Host 1 (E7)", "value": 0.73}, {"measurement": "Order Parameter", "setting": "[4]; Host 2 (ZLI 1132)", "value": 0.79}, {"measurement": "Order Parameter", "setting": "[4]; Host 3 (ZLI 1695)", "value": 0.81}, {"measurement": "Order Parameter", "setting": "[4]; Host 4 (alkyl-cyanophenyl-dioxanes mixture)", "value": 0.74}, {"measurement": "Order Parameter", "setting": "[4]; Host 9 (mixed bicyclo-octane)", "value": 0.81}, {"measurement": "Order Parameter", "setting": "[4]; Host 10 (E61)", "value": 0.78}, {"measurement": "Order Parameter", "setting": "[4]; Host 11 (E49)", "value": 0.78}, {"measurement": "Order Parameter", "setting": "[4]; Host 12 (fluorobicyclo(2,2,2)octane esters)", "value": 0.77}, {"measurement": "Order Parameter", "setting": "[5]", "value": 0.79}, {"measurement": "Solubility", "setting": "[6]; Host 2 (ZLI 1132), 20° C.", "value": 4.0, "unit": "%"}, {"measurement": "Solubility", "setting": "[6]; Host 3 (ZLI 1695), 20° C.", "value": 2.5, "unit": "%"}, {"measurement": "Solubility", "setting": "[6]; Host 10 (E61), -2° C.", "value": 4.0, "unit": "%"}, {"measurement": "Solubility", "setting": "[6]; Host 11 (E49), 20° C.", "value": "> 5.0", "unit": "%"}, {"measurement": "Solubility", "setting": "[6]; Host 11 (E49), -2° C.", "value": 4.4, "unit": "%"}, {"measurement": "Solubility", "setting": "[6]; Host 12 (fluorobicyclo(2,2,2)octane esters), 20° C.", "value": 2.0, "unit": "%"}, {"measurement": "molar extinction coefficient", "setting": "[7]", "value": "11,000 cm^2.moles^-1"}, {"measurement": "λmax", "setting": "[8]", "value": 464, "unit": "nm"}]}
